The text below walks through data of patent US20060287319A1, “Anti-viral compositions comprising heterocyclic substituted phenyl furans and related compounds” (priority 2005, published 2006).

In general, EC50 refers to the concentration giving half of the maximal effect. As usually defined, the IC50 is the concentration that inhibits the measured activity by half.

One data set concerns HIV-1 IIIB. The settings on record: for EC50: read-out: EC50 (μM) (M ± SD) for inhibition of p24, MT-2 cells; for SI (CC50/EC50): selectivity index.
Another data set has as its system HIV-1 MN. Particulars: read-out: IC50 (μM) (Mean ± SD); HIV-1 strain MN. The protocol:
Assessment of anti-HIV-1 infectivity. The inhibitory activity of compounds on infection by laboratory-adapted HIV-1 strains was determined as previously described (34). In brief, 1×10^4 MT-2 cells were infected with HIV-1 at 100 TCID50 (50% tissue culture infective dose) in 200 μl of RPMI 1640 medium containing 10% FBS in the presence or absence of compounds at graded concentrations overnight. For the time-of-addition assay, compounds were added at various time post-infection. Then the culture supernatants were removed and fresh media were added. On the fourth day post-infection, 100 μl of culture supernatants were collected from each well, mixed with equal volumes of 5% Triton X-100 and assayed for p24 antigen, which was quantitated by ELISA (23). Briefly, the wells of polystyrene plates (Immulon 1B, Dynex Technology, Chantilly, Va.) were coated with HIV immunoglobulin (HIVIG), which was prepared from plasma of HIV-seropositive donors with high neutralizing titers against HIV-1IIIB as previously described (36) in 0.085 M carbonate-bicarbonate buffer (pH 9.6) at 4° C. overnight, followed by washes with PBS-T buffer (0.01M PBS containing 0.05% Tween-20) and blocking with PBS containing 1% dry fat-free milk (Bio-Rad Inc., Hercules, Calif.). Virus lysates were added to the wells and incubated at 37° C. for 1 h. […] Reactions were terminated by addition of 1N H2SO4. Absorbance at 450 nm was recorded in an ELISA reader (Ultra 384, Tecan). Recombinant protein p24 (US Biological, Swampscott, Mass.) was included for establishing standard dose response curve.

For data set [1], the system named is HIV-1IIIB infected H9 cells (H9/HIV-1IIIB) and MT-2 cells. Kind of data set: HIV-1 mediated cell-cell fusion (dye transfer assay). The format is cell-based. Particulars: for EC50: H9/HIV-1IIIB with MT-2 cells, read-out: EC50 (μM) (M ± SD) for inhibition of Cell fusion; for inhibition of fusion of HIV-1IIIB infected H9 cells with uninfected MT-2 cells: dose dependent, FIG. 2. In a few lines: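 Calcein-AM-labelled H9/HIV-1IIIB cells were co-incubated with MT-2 cells (1:5) for 2 h at 37 °C with or without compounds. Fused and unfused labelled cells counted by fluorescence microscopy; percent fusion inhibition and IC50 calculated.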

The mark [2] stands for this setting: read-out: IC50 (μM) (Mean ± SD), HIV-1 strain IIIB.

Where two headings read alike, the source gives them in different places. Some results are limits rather than exact numbers.

As for `O=C(O)c1cc(-c2ccc(/C=C3\SC(=S)N(CCc4ccccc4)C3=O)o2)ccc1Cl` [NB206], the EC50 in the data set with HIV-1 IIIB (HIV-1 IIIB) worked out at 0.019 ± 0.002 µM; in data set [1] it was 0.459 ± 0.05 µM. In addition, the IC50 in the data set on HIV-1 IIIB (read-out: IC50 inhibiting HIV-1 replication, HIV-1 IIIB) was 0.019 µM; with HIV-1 MN, 0.174 ± 0.027 µM; in data set [1], less than 667 nM. Moreover, the “SI (CC50/EC50)” value with HIV-1 IIIB came out at 981.11. The “inhibition of fusion of HIV-1IIIB infected H9 cells with uninfected MT-2 cells” value (from here on “inhibition”) in data set [1] is on record as “inhibited fusion”.

On to `O=C(O)c1cccc(-c2ccc(/C=C3\SC(=S)N(c4ccc(Cl)cc4Cl)C3=O)o2)c1` [NB231], for which the EC50 with HIV-1 IIIB (HIV-1 IIIB) came out at 0.189 ± 0.042 µM; in data set [1], 0.982 ± 0.054 µM. Further, the IC50 in the data set with HIV-1 IIIB (setting [2]) came out at 0.189 ± 0.042 µM; in the data set with HIV-1 MN, 1.69 ± 0.044 µM. Also, in the data set with HIV-1 IIIB, the “SI (CC50/EC50)” value was 656.56. Also, the “inhibition” value in data set [1] is “inhibited fusion”.

On to `CCN1C(=O)/C(=C/c2ccc(-c3cccc(C(=O)O)c3)o2)SC1=S` [NB179], for which the EC50 in the data set with HIV-1 IIIB (HIV-1 IIIB) was found to be 0.501 ± 0.039 µM; in data set [1], 3.66 ± 0.154 µM. For the same compound, the IC50 in the data set with HIV-1 IIIB (setting [2]) came to 0.501 ± 0.039 µM; in the data set on HIV-1 MN, 2.93 ± 0.362 µM. The “SI (CC50/EC50)” value in the data set with HIV-1 IIIB is given as greater than 1230.77. Besides, in data set [1], the “inhibition” value is “inhibited fusion”.
